From PMC10066322 (Scientific Reports, 2023)

Key:
hTR levels in Hela cells = hTR levels in Hela cells by RT-qPCR; format: cell-based, human; settings: 50 µM, 2 days, RT-qPCR vs DMSO
Experimental: 48 h after transfection/drug treatment, cells were collected for either RNA or protein analysis.
Extracted total RNA was reverse transcribed using Mir-X miRNA first strand synthesis kit (Taraka, Cat # 638315) to make cDNA and qPCR was perfomred with iQ SYBR Green Supermix (BioRad, Cat. No. 1708880) with […] (forward primer) and […] (reverse primer) for hTR. The RNA levels were normalized using 5S rRNA as a housekeeping gene.

[1] = biological target: ACK1 (activated CDC42 kinase 1); settings: cited from earlier work
PARN1-430 = biological target: T1, PARN1-430 (Homo sapiens, UniProt O95453); experiment: Gel assay of poly(A) RNA shortening by PARN1-430; format: biochemical
T1 construct: expression of the C-terminal truncated protein (1-430 aa of PARN) was soluble; His tag (from the pCold I vector); made in house; host or cells: E. coli Rosetta 2 DE
T1 sequence (O95453 1-430): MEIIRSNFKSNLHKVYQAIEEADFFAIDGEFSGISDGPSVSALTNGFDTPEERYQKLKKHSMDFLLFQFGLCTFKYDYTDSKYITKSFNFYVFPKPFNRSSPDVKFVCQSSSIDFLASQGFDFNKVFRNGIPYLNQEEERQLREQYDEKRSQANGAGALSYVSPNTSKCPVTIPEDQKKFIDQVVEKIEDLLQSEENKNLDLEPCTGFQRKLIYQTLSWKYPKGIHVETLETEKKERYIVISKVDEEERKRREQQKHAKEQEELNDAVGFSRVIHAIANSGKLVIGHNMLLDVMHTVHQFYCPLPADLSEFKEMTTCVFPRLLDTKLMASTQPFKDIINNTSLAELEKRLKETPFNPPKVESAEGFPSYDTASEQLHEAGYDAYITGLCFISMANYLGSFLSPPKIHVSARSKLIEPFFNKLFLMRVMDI
Experimental: PARN1-430 was incubated with a fluorescently labeled RNA with a CCUUUCC sequence followed by a 9 nucleotide-long poly(A) tail and the reaction product was visualized on denaturing acrylamide gels. We observed that PARN removed the 3′ oligo(A) tail from the RNA substrate (Fig. 2c and d). […] Moreover, we observed that PARN is inhibited when treated with adenosine monophosphate (AMP), as has been reported previously.
1 µL of protein (73 nM as final concentration) (stock protein is diluted in 1× lysis buffer (HEPES KOH, pH 7.4, 30 mM, KOAc 100 mM, and Mg(Oac)2 2 mM) was added to 4 µL of 2.5× reaction buffer (Tris–HCl pH 7.4, 10 mM, KCl 50 mM, MgCl2 5 mM). If drug was added, reaction was pre-incubated with drugs for 10 min before 5 µL of RNA (5 µM as final concentration) was added. The reaction was incubated at 37 °C for 20 min. After the incubation, the reaction was either diluted with 2× loading buffer and heated to 95 °C for 5 min for gel or quenched by adding 10 µL of quencher solution (30 µM of 3′-BHQ labeled quench DNA in 1% SDS). Quenched reaction was incubated at room temperature for 10–60 min and fluorescence was measured using Fluorescein wavelength measurement.
15% TBE-Urea gel (Thermo Fisher Scientific) was prerun at 20W for 30 min. RNAs from the reaction was loaded into 15% TBE gels and run at 300 V for 35 min. The gel was visualized using iBright (Invitrogen FL1500).

PARN level in Hela cells = experiment: Western blot of PARN protein level in Hela cells; format: cell-based, human; settings: 50 μM, 2 days
Description: The blot was blotted against anti-PARN antibody. (b) Quantification of the changes in PARN levels of western blot using GAPDH as loading controls. siPARN and drug treatments were normalized to scramble siRNA and DMSO controls, respectively. siPARN and drug treatment data were compared to scr and DMSO data, respectively. One-way ANOVA, multiple comparisons test. Average ± SD, N = 3 biological replicates, n = 1. […] (d) Quantification of miR-21-5p levels normalized to U1 RNA. One-way ANOVA, multiple comparisons test, average ± SD, N = 3 biological replicates, n = 1. […] One-way ANOVA, multiple comparisons test, average ± SD, N = 3 biological replicates, n = 2. (f) Representative northern blot showing that miR-21-5p levels decreased in TH11, TH15, and TH16 treatments. […] (g) Quantification of miR-21-5p levels normalized to U1 RNA. […] For nothern blot and RT-qPCR quantifications, Scr and DMSO controls were independently set to 1 and used as control for siPARN and drug treatments, respectively. *P < 0.05, **P < 0.005, ***P < 0.001, ****P < 0.0001, n.s. was not indicated. […]
Cells was lysed with 2× lysis buffer (2.5% SDS, 4% BME, protease inhibitor) and was separated on a 4–12% Bis–Tris NuPage gel (ThermoFisher) and transferred to protran membrane (Amer- sham). […] Blot was quantified using ImageJ and normalized to GAPDH levels (GAPDH antibody (0411) HRP) (Santa Cruz Biotechnology, sc-47724 HRP).

Hela cells = experiment: Cell death assay (cell counting, with or without doxorubicin); format: cell-based, human
Experimental: Previous work has shown that PARN inhibition leads to cell death in combination with DNA damaging agent, which has been interpreted to occur through the induction of p53[11].
Cell counting were done 2 days post-treatment. For doxorubicin (EMD Millipore, 504042) treatment, doxorubicin (1 μM) was added to cells. Cells were collected and counted at 0 h and 24 h after treatment.

- inhibitory effect on PARN1-430, gel assay (PARN1-430): most effective PARN1-430 inhibitor
SMILES: Cc1ccc(Nc2ncc3c(n2)N(C)C(=O)N(c2cc(NC(=O)c4cccc(C(F)(F)F)c4)ccc2C)C3)cn1 [GNF-7]
- hTR levels (hTR levels in Hela cells): decreased
- IC50 [1]: 25 nM
- PARN level (western blot) (PARN level in Hela cells): do not affect PARN level
- sensitivity of cells to doxorubicin (cell death) (Hela cells; Hela cells treated 2 days, then doxorubicin 1 μM for 24 h): increase the sensitivity
- cell growth compared to DMSO treatment (Hela cells; Hela cells, 25 μM, 2 days): growth defects
